Test results from patent US10575485B2, “Wheat plants having increased resistance to imidazolinone herbicides” (The Department of Agriculture, Western Australia, priority 2002, dated 2020).

Columns and labels:
[1] = system: Triticum aestivum wheat lines K-42 and Br-8; assay: Seed soak and spray selection of mutagenised wheat lines for imazamox tolerance; format: in vivo; settings: M3 seed soaked in 50 ppm solution for 24 hours, subsequent plants sprayed with 50 ppm
Experimental: 840 grams of seed of the Triticum aestivuni wheat varieties Krichauff and Brookton were soaked in a sodium azide solution (0.065 g/L) to produce M1 seed. M1 plants were allowed to self pollinate to produce M2 seed. M2 seed were soaked in a 50 ppm solution of the imidazolinone herbicide imazamox for 24 hours prior to sowing in the field. Resultant plants that appeared to have normal growth eight to nine weeks after sowing were transplanted from the field to a greenhouse for M3 seed production. To confirm herbicide tolerance, M3 seed were soaked in a 50 ppm solution of imazamox for 24 hours prior to sowing, and subsequent plants were sprayed with a solution of 50 ppm of imazamox.

[2] = system: wheat plants (K-42, Br-8, K-42/Br-8, wild type Krichauff and Brookton); assay: Greenhouse herbicide tolerance, injury scored on a 0-9 scale; format: in vivo, Triticum aestivum; settings: 40 and 120 g/ha
Experimental: Tolerance of K-42 and Br-8 to the imidazolinone herbicide imazamox was evaluated at 40 and 120 g/ha in the greenhouse. Wild type Krichauff and Brookton were used as herbicide susceptible controls. 24 plants were treated at each rate at the 2-3 leaf stage. Injury was scored on a 0-9 scale, 0 representing no injury and 9 representing plant death. FIG. 4 summarizes the data collected 14 and 21 days after treatment. In Example 1, reference was made to crosses between K-42, containing a mutation in Als3 conferring imidazolinone herbicide tolerance, and FS-2 and Br-8, each containing a mutation in Als1 also conferring imidazolinone herbicide tolerance. Krichauff and Brookton are the wheat varieties from which K-42 and Br-8, respectively, were derived. Lines derived from the K-42/FS-2 cross were tolerant to rates of up to six times that required for economic weed control in the field. One line derived from the K-42/Br-8 cross was evaluated in the greenhouse for tolerance to 40 and 120 grams/hectare of irnazamox. Injury was scored on a 0-9 scale, 0 representing no injury and 9 representing plant death.

[3] = system: AHAS extracted from wild type and tolerant wheat plants; assay: In vitro AHAS enzyme activity in the presence of imidazolinone herbicide; format: biochemical, Triticum aestivum
From the text: Because the tolerance in K-42 and Br-8 is due to a mutation in the AHAS enzyme rendering it resistant to inhibition by imidazolinone herbicides, the in vitro activity of AHAS extracted from wild type plants (not having the mutation for tolerance) can be compared to the in vitro activity of AHAS extracted from tolerant plants in the presence of varying concentrations of an imidazolinone herbicide. K-42 was compared to the wild type variety Krichauff, and Br-8 was compared to the wild type variety Brookton. […] As explained in Example 2, the in vitro AHAS enzyme activity can be compared among lines with and without a mutation conferring resistance to inhibition by imidazolinone herbicides. […]

Row | Structure (SMILES) | Herbicide tolerance of M2-derived lines K-42 and Br-8 [1] | Resistance and injury of K-42 and BR-8 relative to wild type counterparts (FIG. 4) ([2]; 2-3 leaf stage, 14 and 21 days after treatment) | Tolerance and injury of the line derived from the K-42/Br-8 cross (FIG. 6) ([2]; injury 0-9 scale) | Residual uninhibited AHAS in Br-8 and K-42 ([3]; 100 μM imazamox) | Uninhibited AHAS enzyme activity with increasing herbicide concentration (FIG. 5) ([3]; wild type Krichauff and Brookton versus K-42 and Br-8) | Percent uninhibited AHAS activity in the Br-8/K-42 combination (FIG. 7) ([3]; four highest herbicide concentrations, compared with Br-8, K-42 and wild type)
1 | COCc1cnc(C2=NC(C)(C(C)C)C(=O)N2)c(C(=O)O)c1 (stereo not drawn) [imazamox] | identified as tolerant to imazamox | increased resistance and decreased injury | greatly enhanced tolerance at both 40 and 120 g/ha with very little injury | sufficient to provide a herbicide tolerant response | decreased faster in wild type lines than in either Br-8 or K-42 | 
2 | CCc1cnc(C2=NC(C)(C(C)C)C(=O)N2)c(C(=O)O)c1 (stereo not drawn) [imazethapyr] |  |  |  |  |  | increase in percent uninhibited AHAS activity
